In article PMC2719696, “Kinetics and Cellular Site of Glycolipid Loading Control the Outcome of Natural Killer T Cell Activation” (Immunity, 2009):

What was measured:
murine iNKT cell TCRs = assay: Equilibrium binding of glycolipid-loaded mCD1d tetramers to murine iNKT cells; design: species or system mouse; conditions: tetramer staining of murine iNKT cells
Description: The interactions of iNKT cell TCRs with CD1d molecules loaded with αGalCer analogs were analyzed with fluorescent murine and human CD1d tetramers. […] Equilibrium binding studies for measuring TCR avidities were carried out by incubation of human or murine iNKT cells with varying concentrations of αGalCer-analog-loaded tetramers and determining relative levels of cell-associated fluorescence ([Stanic et al., 2003; Yu et al., 2005]).
Figure 2 Characterization of iNKT Cell TCR Interactions with αGalCer Analogs (A) Flow cytometry analysis of human and murine iNKT cells with αGalCer analog-CD1d tetramers. In the top row, murine iNKT cells from C57BL/6 splenocytes were costained with αGalCer analog-loaded or unloaded mCD1d tetramers conjugated with PE (x axis) and αGalCer-C26:0-loaded-mCD1d tetramers conjugated with APC (y axis). In the bottom row, human PBMCs were similarly costained with human glycolipid-loaded CD1d tetramers. (B) Binding avidity of glycolipid-mCD1d complexes to murine iNKT cell TCRs. Histograms at left show tetramer staining of NK1.1^+ CD3^+ T cells in C57BL/6 splenocytes with glycolipid-loaded tetramers at 20 nM. […]
Recombinant CD1d proteins were produced and assembled into tetramers for staining as previously described ([Forestier et al., 2007]). […] All samples were analyzed with the FACSCalibur flow cytometer (BD Biosciences).

mCD1d = molecular target: T1, mCD1d (Mus musculus, UniProt P11609); assay: mAb L363 staining of αGalCer-mCD1d complexes on cultured mouse splenocytes; assay type: cell-based; conditions: 100 nM glycolipid, 1 hr or 19 hr
T1 construct: host or cells: JAWS II (C57BL/6.Trp53-/- derived dendritic cell line)
T1 sequence (P11609 22-336): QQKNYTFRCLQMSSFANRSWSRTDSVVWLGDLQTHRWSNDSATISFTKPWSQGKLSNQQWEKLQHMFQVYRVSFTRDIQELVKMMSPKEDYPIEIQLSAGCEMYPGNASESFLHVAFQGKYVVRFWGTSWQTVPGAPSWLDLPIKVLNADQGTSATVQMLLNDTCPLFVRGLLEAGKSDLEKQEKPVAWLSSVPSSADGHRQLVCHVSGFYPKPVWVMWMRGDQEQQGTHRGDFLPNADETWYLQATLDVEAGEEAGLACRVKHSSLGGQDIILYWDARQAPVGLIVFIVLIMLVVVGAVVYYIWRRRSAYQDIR
T1 sequence (P01887 21-119 partner): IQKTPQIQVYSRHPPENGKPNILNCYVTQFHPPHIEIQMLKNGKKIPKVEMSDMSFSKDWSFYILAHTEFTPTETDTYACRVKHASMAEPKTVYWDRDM
Description: We studied this possibility directly by using a monoclonal antibody (L363) that specifically recognizes complexes of αGalCer bound to mCD1d ([Yu et al., 2007]). Mouse splenocytes were cultured with either αGalCer-C26:0 or representative Th2 cell-type cytokine-biasing analogs, and L363 staining was assessed on various cell types (Figure 3A). […] This was investigated further with more detailed kinetic studies in which immortalized mouse DC line JAWS II was cultured with each glycolipid and assessed for L363 surface staining at 0.5, 4, and 18 hr (Figure 3B). […]
Figure 3 Direct Analysis of Presentation of αGalCer Analogs with Complex-Specific mAb Staining (A) Mouse splenocytes cultured with either vehicle only (0.02% DMSO) or with the indicated αGalCer analogs (100 nM) were harvested after 1 hr or 19 hr of incubation and stained with mAb L363 or anti-CD1d mAb 1B1 and with mAbs specific for CD11c, CD19, and F4/80 (Figure S4). […] (B) JAWS II cells were incubated with glycolipids (250 nM) for various times ranging from 0.5–18 hr as indicated, stained with mAb L363, and analyzed by flow cytometry. […]
Recombinant CD1d proteins were produced and assembled into tetramers for staining as previously described ([Forestier et al., 2007]). […] All samples were analyzed with the FACSCalibur flow cytometer (BD Biosciences). […]

Structure (SMILES)	TCR avidity of glycolipid-mCD1d complexes (murine iNKT cell TCRs)	L363 staining of splenocyte populations (mCD1d)
CCCCCCCCCCCCCCCCCCCCCCCC(=O)NC(COC1OC(CO)C(O)C(O)C1O)C(O)C(O)CCCCC (centres unmarked) [OCH]	weak binding	–
CCCCCCCCCCCCCCC(O)C(O)C(COC1OC(CO)C(O)C(O)C1O)NC(=O)CCCCCCCCC (centres unmarked) [αGalCer-C10:0]	–	extremely early appearance of L363 staining
